From US7985744B2, “Vitamin D derivatives” (Chugai Seiyaku Kabushiki Kaisha, priority 2000, dated 2011)

Legend:
[1] = test system: Keratinocytes from adult human skin; experiment: Growth inhibition against keratinocytes, [3H]thymidine incorporation (Test Example 4); type: cell-based; conditions: relative inhibition = IC50 of active vitamin D3 / IC50 of test compound
Procedure: Keratinocytes from adult human skin (Clonetics) were seeded in 96-well plates (COSTAR 3595) at a cell density of 1×10^3/well. The wells were then supplemented with the given concentrations of active vitamin D3 (1α,25 (OH)2D3) or Compounds 6 to 12, followed by incubation in KGM-2 medium at a cell density of 1×10^3 cells/200 μl/well for 3 days at 37° C. in 5% CO2 and 95% air. [^3H]Thymidine was added to each well (7.4 kBq/well) and the plates were further incubated for 1 day. After removal of the medium, each well was treated with 0.05% trypsin/0.53 mM EDTA to strip the cells. The amount of [^3H]thymidine incorporated into the cells was determined with a liquid scintillation counter (1450 MicroBeta, Wallac). […] Growth inhibition against keratinocytes in the table was expressed as a relative value of each compound compared to active vitamin D3: Relative inhibition=(IC50 (mol/l) of active vitamin D3)/(IC50 (mol/l) of test compound).

[2] = Blood ionized calcium level in mice after percutaneous administration (Test Examples 1 and 3); type: in vivo; conditions: Balb/c mice, percutaneous single application, dose 1000 μg/kg, blood taken two days after administration
Procedure: Eight week old male Balb/c mice were percutaneously administered with active vitamin D3 (1α,25 (OH)2D3, 125 μg/ml in ethanol) or Compounds 1 to 5 (vitamin D derivatives prepared in the above Examples, 500 μg/ml in ethanol) or ethanol alone (as a control). These samples were applied once to the dorsal skin (about 1.5×2.0 cm^2) of the mice in a volume of 2 ml/kg. Each of the mice was then fitted with a necklace harness in order to avoid oral ingestion. On the next day, the administered sites were cleaned and the necklace harnesses were removed. Two days after administration, blood was taken from each mouse and assayed for ionized calcium level by the ion selective electrode method. The assay was performed in groups of 3 mice. […] Ionized calcium levels in the table are expressed as mean values.
The same procedures as shown in Test Example 1 were repeated to assay blood ionized calcium levels in mice, except that Compounds 6 to 12 were used as vitamin D derivatives. […] Ionized calcium levels in the table are expressed as mean values.

[3] = test system: Keratinocytes from human neonatal foreskin; experiment: Growth inhibition against human keratinocytes, [3H]thymidine uptake (Test Example 2); type: cell-based; conditions: relative inhibition = IC50 of active vitamin D3 / IC50 of each compound
Procedure: Keratinocytes from human neonatal foreskin (Clonetics) were seeded in 96-well plates (COSTAR 3595) at a cell density of 2×10^3/well. The wells were then supplemented with the given concentrations of active vitamin D3 (1α,25 (OH)2D3) or Compounds 1 to 5, followed by incubation in KGM-2 medium at a cell density of 2×10^3 cells/200 μl/well for 3 days at 37° C. in 5% CO2 and 95% air. [^3H]Thymidine was added to each well (7.4 kBq/well) and the plates were further incubated for 1 day. Each well was washed once with calcium- and magnesium-free phosphate buffer (Dulbecco's PBS(−), Nissui, code 05913, pH 7.3-7.65) and then treated with 0.25% trypsin to strip the cells. The [^3H]thymidine uptake of the cells was determined by a liquid scintillation counter (1450 MicroBeta, Wallac). […] Growth inhibition against human keratinocytes in the table was expressed as a relative value of each compound compared to active vitamin D3: Relative inhibition=(IC50 (mol/l) of active vitamin D3)/(IC50 (mol/l) of each compound).

Compound	Growth inhibition against human keratinocytes (relative value) [1]	Blood ionized calcium level ([2]; Test Example 3, mean values)	Growth inhibition against human keratinocytes (relative value) [3]	Blood ionized calcium level ([2]; Test Example 1, mean of 3 mice)
1α,3β-dihydroxy-20(S)-(1,1-dimethylhexyloxycarbonylmethoxy)-9,10-secopregna-5,7,10(19),16-tetraene [Compound 10]	1.6	1.43 mmol/L		
1α,3β-dihydroxy-20(S)-(1-isopropyl-2-methylpropoxycarbonylmethoxy)-9,10-secopregna-5,7,10(19),16-tetraene [Compound 7]	0.4	1.28 mmol/L		
1α,3β-dihydroxy-20(S)-(N-tert-butyl-N-methylaminocarbonylmethoxy)-9,10-secopregna-5,7,10(19),16-tetraene [Compound 2]			5.9	2.27 mmol/L
1α,3β-dihydroxy-20(S)-(N-tert-butylaminocarbonylmethoxy)-9,10-secopregna-5,7,10(19),16-tetraene [Compound 4]			7.0	2.16 mmol/L
1α,25(OH)2D3	1.0		1.0	
20(S)-(tert-butoxycarbonylmethoxy)-1α,3β-dihydroxy-9,10-secopregna-5,7,10(19),16-tetraene [Compound 1]			2.0	1.65 mmol/L
C=C1/C(=C\C=C2/CCC[C@]3(C)C([C@H](C)OCCC(=O)OC(C)(C)C)=CC[C@@H]23)C[C@@H](O)C[C@@H]1O [Compound 3, 1α,3β-dihydroxy-20(S)-(tert-butoxycarbonylethoxy)-9,10-secopregna-5,7,10(19),16-tetraene]			0.5	
C=C1C(=CC=C2CCCC3(C)C(C(C)OCC(=O)OC(C)C)=CCC23)CC(O)CC1O [Compound 5, 1α,3β-dihydroxy-20(S)-(isopropoxycarbonylmethoxy)-9,10-secopregna-5,7,10(19),16-tetraene]			0.3	1.35 mmol/L
C=C1/C(=C\C=C2/CCC[C@]3(C)C([C@H](C)OCC(=O)OC(C)(CC)CC)=CC[C@@H]23)C[C@@H](O)C[C@@H]1O [Compound 6, 1α,3β-dihydroxy-20(S)-(1-ethyl-1-methylpropoxycarbonylmethoxy)-9,10-secopregna-5,7,10(19),16-tetraene]	12.0	1.57 mmol/L		
C=C1C(=CC=C2CCCC3(C)C(C(C)OCC(=O)OC(C)(C)CCC)=CCC23)CC(O)CC1O [Compound 8, 1α,3β-dihydroxy-20(S)-(1,1-dimethylbutoxycarbonylmethoxy)-9,10-secopregna-5,7,10(19),16-tetraene]	2.5	1.39 mmol/L		
C=C1C(=CC=C2CCCC3(C)C2CCC3C(C)OCC(=O)OC(C)(CC)CC)CC(O)CC1O [Compound 9, 1α,3β-dihydroxy-20(S)-(1-ethyl-1-methylpropoxycarbonylmethoxy)-9,10-secopregna-5,7,10(19)-triene]	0.7	1.55 mmol/L		
C=C1C(=CC=C2CCCC3(C)C(C(C)OCCC(=O)OC(C)(CC)CC)=CCC23)CC(O)CC1O [Compound 11, 1α,3β-dihydroxy-20(S)-{2-(1-ethyl-1-methylpropoxycarbonyl)ethoxy}-9,10-secopregna-5,7,10(19),16-tetraene]	0.4	1.42 mmol/L		
C=C1/C(=C\C=C2/CCC[C@]3(C)C([C@H](C)OCC(=O)NCC(F)(F)C(F)(F)F)=CC[C@@H]23)C[C@@H](O)C[C@@H]1O [Compound 12, {(1α,3β-dihydroxy-9,10-secopregna-5,7,10(19),16-tetraen-20(S)-yl)oxy}-N-(2,2,3,3,3-pentafluoropropyl)acetamide]	8.3	1.58 mmol/L		
